# Test results: US20090029406A1, “Npy Y4 Agonist as Therapeutic Agent for Disease Accompanied by Intestinal Tract Dysfunction” (Banyu Pharmaceutical Co., Ltd., priority 2006, published 2009)
# Experiments:
# [1] = test system: NPY Y4 receptor knockout mice; test: Amount of excreted feces in NPY Y4 receptor knockout mice (Example 4); assay type: in vivo, mouse; conditions: 1 mg/kg subcutaneous, vehicle group 358±31 mg/2 h
# Experimental: (§1) The following test was carried out using wild-type mice and NPY Y4 receptor knockout mice (male, 23 to 39 weeks of age, n=10 to 16). mPP (1 mg/kg) or saline (5 mL/kg) was subcutaneously administered to the mice. The mice were subjected to fasting at the same time of the subcutaneous administration. Feces were collected at 1 and 2 hours after the administration, and the weight of the feces was measured. The cumulative amount of feces for 2 hours was used for an analysis, and a significant difference between groups was analyzed using the Student's t-test.
# [2] = test system: mouse models of constipation induced by clonidine; test: Mouse models of constipation induced by clonidine, amount of excreted feces (Example 3); assay type: in vivo; conditions: clonidine 0.1 mg/kg i.p., mPP 1 mg/kg s.c. one hour later; 4 hours after clonidine (3 hours after mPP)
# Experimental: To male mice (C57BL/6J, 18 weeks of age), clonidine (0.1 mg/kg) was intraperitoneally administered, and to a vehicle group, only saline was intraperitoneally administered. One hour after the administration of clonidine, saline (a control group) or mPP (1 mg/kg) was subcutaneously administered, and also to a vehicle group, only saline was subcutaneously administered. The mice were subjected to fasting at the same time of the intraperitoneal administration of saline or clonidine. Feces were collected at 1, 2, 3 and 4 hours after the administration, and the weight of the feces was measured. A significant difference between groups was analyzed using an analysis of variance and the Tukey's test.
# male mice (C57BL/6J) = test: Amount of excreted feces after subcutaneous administration to mice (Example 1); assay type: in vivo, mouse
# From the text: Also, it is known that the Y4 receptor is present in the lower gastrointestinal tract. Accordingly, by administering mouse PP (mPP) to a mouse, an effect on the movement of the lower gastrointestinal tract of the mouse was studied. That is, how the amount of excreted feces was changed by the administration of mPP was observed, and a change in the gastrointestinal movement was discussed by assuming that an increase in the amount of excreted feces reflects an increase in the lower gastrointestinal tract movement.
# To male mice (C57BL/6J, 15 weeks of age), mPP (0.001, 0.01, 0.1 or 1 mg/kg) was subcutaneously administered, and to a vehicle group, only saline (5 mL/kg) was subcutaneously administered. The mice were subjected to fasting at the same time of the subcutaneous administration of saline or mPP. Feces were collected at 1, 2 and 4 hours after the administration, and the weight of the feces was measured. A significant difference between groups was analyzed using an analysis of variance and the Dunnett's test.
# [3] = test system: distal colon isolated from a C57BL/6 mouse; test: Tension of isolated distal colon, organ bath (Example 2)
# Experimental: (§2) The ileum, proximal colon and distal colon were isolated from a C57BL/6 mouse (8 to 20 weeks of age). The specimens were cut into a length of 1 cm, respectively, and were suspended in the longitudinal muscle direction under a resting tension of 0.3 g in 5 mL of Krebs-Henseleit solution (the composition is shown in Table 1) oxygenated with 95% O2 and 5% CO2, while setting the temperature of a bath to 37° C. The tension was measured using an isometric transducer (TB-651, manufactured by Nihon Kohden), and outputs were recorded at 20 points per second using Power Lab (manufactured by ADInstrument).
# (§3) After equilibration for 1 hour, mPP at 0.01 μM, 0.1 μM and 1 μM was applied and measurement was carried out for 20 minutes. The above-mentioned mPP was prepared such that it became 0.01 mM, 0.1 mM and 1 mM solutions in DMSO, and 5 μL of each of the resulting solutions was applied to 5 mL of an organ bath. The action of mPP was represented by a ratio of an average tension for 20 minutes after the application to an average tension for 20 minutes before the application. The statistical calculation was performed using the paired t-test.
# [4] = test system: proximal colon isolated from a wild-type mouse; test: Tension of proximal colon isolated from wild-type mouse (Example 5); conditions: 1 μM
# Experimental: (§4) The ileum, proximal colon and distal colon were isolated from an NPY Y4 receptor knockout mouse and a wild-type mouse (32 to 37 weeks of age). The specimens were cut into a length of 1 cm, respectively, and were suspended in the longitudinal muscle direction under a resting tension of 0.3 g in 5 mL of Krebs-Henseleit solution oxygenated with 95% O2 and 5% CO2, while setting the temperature of a bath to 37° C. The tension was measured using an isometric transducer (TB-65 1, manufactured by Nihon Kohden), and outputs were recorded at 20 points per second using Power Lab (ADInstrument).
# (§5) After equilibration for 1 hour, 1 μM mPP was applied and measurement was carried out for 20 minutes. The above-mentioned mPP was prepared such that it became a 1 mM solution in DMSO, and 5 μL of the resulting solution was applied to 5 mL of an organ bath. The action of mPP was represented by a ratio of an average tension for 20 minutes after the application to an average tension for 20 minutes before the application. The statistical calculation was performed using the Student's t-test or paired t-test.
# wild-type mice = test: Amount of excreted feces in wild-type mice (Example 4); assay type: in vivo, mouse; conditions: 1 mg/kg subcutaneous
# Experimental: as §1
# [5] = test system: proximal colon isolated from a C57BL/6 mouse; test: Tension of isolated proximal colon, organ bath (Example 2)
# Experimental: as §2, §3
# [6] = test system: ileum isolated from a C57BL/6 mouse; test: Tension of isolated ileum, organ bath (Example 2); conditions: 0.01, 0.1 and 1 μM
# Experimental: as §2, §3
# [7] = test system: distal colon isolated from a wild-type mouse; test: Tension of distal colon isolated from wild-type mouse (Example 5); conditions: 1 μM
# Experimental: as §4, §5
# [8] = test system: ileum isolated from an NPY Y4 receptor knockout mouse and a wild-type mouse; test: Tension of ileum isolated from NPY Y4 receptor knockout and wild-type mouse (Example 5); conditions: 1 μM
# Experimental: as §4, §5
# [9] = 0.01, 0.1 and 1 μM, ratio of average tension 20 min after to 20 min before application
substance,measurement,setting,value
mouse PP (APLEPMYPGDYATPEQMAQYETQLRRYINTLTRPRY; mouse) [mPP],cumulative amount of feces for 2 hours,[1],403±43 mg/2 h
same,decrease in the amount of excreted feces compared with the vehicle group,[2],a significant decrease in the amount of excreted feces was not observed
same,cumulative amount of excreted feces for 4 hours after administration,"male mice (C57BL/6J); 0.1 mg/kg subcutaneous, P<0.05 vs vehicle group (211±18 mg/4 h)",325±22 mg/4 h
same,action of increasing defecation (amount of excreted feces),"male mice (C57BL/6J); 0.001, 0.01, 0.1 or 1 mg/kg subcutaneous, feces collected at 1, 2 and 4 hours",exhibited an action of increasing defecation in a dose dependent manner
same,cumulative amount of excreted feces for 4 hours after administration,"male mice (C57BL/6J); 1 mg/kg subcutaneous, P<0.01 vs vehicle group (211±18 mg/4 h)",408±36 mg/4 h
same,dose at which cumulative amount of excreted feces for 4 hours was significant compared with the vehicle group,male mice (C57BL/6J); subcutaneous,≥ 0.1 mg/kg
same,amplitude of automatism,[3],an increase in the amplitude of automatism was observed
same,"increase in the tension, dose dependence","[3]; 0.01, 0.1 and 1 μM",increased the tension in a dose dependent manner
same,"maximum action on tension, of that before the application",[3]; [9],152%
same,increase in the tension,[4],an increase in the tension observed in the wild-type mouse
same,action of increasing defecation,wild-type mice,exhibited an action of increasing defecation
same,cumulative amount of feces for 2 hours,wild-type mice; P<0.01 vs vehicle group (322±41 mg/2 h),668±64 mg/2 h
same,amplitude of automatism,[5],an increase in the amplitude of automatism was observed
same,"increase in the tension, dose dependence","[5]; 0.01, 0.1 and 1 μM",increased the tension in a dose dependent manner
same,"maximum action on tension, of that before the application",[5]; [9],131%
same,increase in the tension,[6],a significant increase in the tension was not observed
same,increase in the tension,[7],an increase in the tension observed in the wild-type mouse
same,difference in the change in the tension between wild-type and NPY Y4 receptor knockout mouse,[8],a difference was not observed between them
